According to US10647680B2, “Urea compound, preparation method therefor and medical use thereof” (Ancureall Pharmaceutical (Shanghai) Co., Ltd., priority 2016, dated 2020):

Tests used:
CYP1A2 = target: T1, CYP1A2 (Homo sapiens, UniProt P05177); test: P450 enzyme inhibition, CYP1A2; type: in vitro ADME; details: human liver microsomes
T1 construct: human liver microsomes (BD Gentest) (0.5 mg/mL); tissue BD Gentest; host or cells: human liver microsomes
T1 sequence (P05177 1-516): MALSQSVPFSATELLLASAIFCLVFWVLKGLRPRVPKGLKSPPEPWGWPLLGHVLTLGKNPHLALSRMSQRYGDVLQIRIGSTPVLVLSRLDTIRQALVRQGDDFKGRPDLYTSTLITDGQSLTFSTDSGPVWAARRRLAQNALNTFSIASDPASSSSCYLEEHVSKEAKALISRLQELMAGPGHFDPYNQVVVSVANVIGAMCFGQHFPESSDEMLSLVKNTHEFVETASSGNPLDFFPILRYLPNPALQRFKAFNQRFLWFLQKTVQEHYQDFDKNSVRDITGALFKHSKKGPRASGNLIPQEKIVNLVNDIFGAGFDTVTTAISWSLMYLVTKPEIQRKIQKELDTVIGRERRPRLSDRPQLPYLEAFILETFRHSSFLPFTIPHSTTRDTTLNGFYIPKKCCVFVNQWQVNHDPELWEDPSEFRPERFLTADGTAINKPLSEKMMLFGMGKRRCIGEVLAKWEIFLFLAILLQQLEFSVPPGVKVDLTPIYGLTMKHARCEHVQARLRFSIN
Procedure: (§1) Eight cytochrome p450 enzyme inhibition reactions of human liver microsomes were performed using compound 77 of the present invention as a representative example.
(§2) The main reaction systems and processes: in 37° C. water bath, the test compounds (7 concentrations, 0, 0.25, 0.5, 5, 10, 25, and 50 uM; the final methanol concentration was 1% in the system), human liver microsomes (BD Gentest) (0.5 mg/mL) and reducing coenzyme II (Roche 10621706001) (1 mg/mL) and the corresponding cytochrome p450 enzyme probe substrate were co-incubated for 5 to 20 minutes. Among them, (1) the probe substrate for CYP1A2 was Phenacetin ([…]) (Sigma), and the selective inhibitor alpha-naphthoflavone (2 uM) (Sigma) was for parallel detection as positive control, and they were incubated for 20 minutes. (2) The probe substrate for CYP2b6 was Bupropion (40 uM) (Sigma) and the selective inhibitor Ticlopidine (10 uM) (Sigma) was for parallel detection as positive control, and they were incubated for 20 minutes. (3) The probe substrate of CYP2C8 was Amodiaquine (1 uM) (Sigma), and the selective inhibitor Montelukast (10 uM) (Sigma) was for parallel detection as positive control, and they were incubated for 20 minutes. (4) The probe substrate for CYP2C9 was Diclofenac (2.5 uM) (Sigma), and the selective inhibitor Sulphaphenazole (10 uM) (Sigma) was for parallel detection as positive control, and they were incubated for 20 minutes. (5) The probe substrate for CYP2C19 was Mephenytoin (40 uM) (Sigma), and the selective inhibitor Ticlopidine (10 uM) (Sigma) was for parallel detection as positive control, and they were incubated for 20 minutes. (6) The probe substrate for CYP2D6 was Dextromethorphan (5 uM) (Sigma), and the selective inhibitor Quinidine (10 uM) (Sigma) was for parallel detection as positive control, and they were incubated for 20 minutes. (7) The probe substrates for CYP3A4-T and CYP3A4-M were Testosterone (5 uM) (Sigma) and Midazolam (5 uM) (Sigma), respectively, and the selective inhibitor was Ketoconazole (1 uM) (Sigma), they were detected in parallel as positive control, and incubated for 5 minutes. The reaction system was quenched by adding methanol containing the corresponding internal standard. The internal standard compound was Tolbutamide (Sigma). The concentration of the corresponding metabolites was determined by LC/MS/MS. For the data analysis, the decrease in peak area of the metabolite of the sample after addition of compound 77 relative to the peak area of the metabolite of the solvent control sample was used to calculate the IC50 (concentration of the test substance at 50% inhibition). The percentages of peak areas of metabolites of CYP1A2, CYP2B6, CYP2C8, CYP2C9, 15CYP2C19, CYP2D6, CYP3A4-T, and CYP3A4-M probe substrates after addition of different concentrations of compound 77 and selective inhibitors relative to the solvent control peak areas were shown in the Table 7.

CYP2C19 = target: T2, CYP2C19 (Homo sapiens, UniProt P33261); test: P450 enzyme inhibition, CYP2C19; type: in vitro ADME; details: human liver microsomes
T2 construct: human liver microsomes (BD Gentest) (0.5 mg/mL); tissue BD Gentest; host or cells: human liver microsomes
Procedure: as §1, §2

T2 sequence (P33261 whole entry): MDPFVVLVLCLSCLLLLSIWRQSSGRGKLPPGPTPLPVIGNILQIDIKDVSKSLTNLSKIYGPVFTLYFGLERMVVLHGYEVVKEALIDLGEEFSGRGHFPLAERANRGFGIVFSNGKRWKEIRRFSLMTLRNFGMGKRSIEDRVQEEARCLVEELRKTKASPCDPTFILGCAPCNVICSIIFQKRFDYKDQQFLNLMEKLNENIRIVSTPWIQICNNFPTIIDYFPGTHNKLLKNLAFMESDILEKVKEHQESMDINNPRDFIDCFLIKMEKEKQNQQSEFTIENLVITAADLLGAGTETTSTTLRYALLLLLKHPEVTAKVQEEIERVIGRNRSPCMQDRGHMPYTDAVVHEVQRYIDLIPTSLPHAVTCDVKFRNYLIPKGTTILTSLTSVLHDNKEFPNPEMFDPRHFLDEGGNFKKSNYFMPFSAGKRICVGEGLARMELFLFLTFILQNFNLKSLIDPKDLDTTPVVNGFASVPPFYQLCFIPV

SMILES: COCCOc1ccc2c(c1)ncn2-c1ccc(NC(=O)Nc2cc(C(C)(C)C)n[nH]2)cc1 [Compound 77, 1-(5-tert-butyl-2H-pyrazol-3-yl)-3-{4-[5-(2-methoxyl-ethoxyl)-benzimidazol-1-yl]-phenyl}-urea]
- CYP1A2 Remaining % (CYP1A2; Concentration 0.25 uM): 95.7%
- CYP1A2 Remaining % (CYP1A2; Concentration 0.5 uM): 99.8%
- CYP1A2 Remaining % (CYP1A2; Concentration 5 uM): 94.1%
- CYP1A2 Remaining % (CYP1A2; Concentration 10 uM): 92.1%
- CYP1A2 Remaining % (CYP1A2; Concentration 25 uM): 80.9%
- CYP1A2 Remaining % (CYP1A2; Concentration 50 uM): 63.4%
- IC50 (CYP1A2; read-out: half-inhibitory concentration (IC50) of CYP1A2): > 50 µM
- CYP2C19 Remaining % (CYP2C19; Concentration 0.25 uM): 104.2%
- CYP2C19 Remaining % (CYP2C19; Concentration 0.5 uM): 100.8%
- CYP2C19 Remaining % (CYP2C19; Concentration 5 uM): 106.9%
- CYP2C19 Remaining % (CYP2C19; Concentration 10 uM): 102.9%
- CYP2C19 Remaining % (CYP2C19; Concentration 25 uM): 91.3%
- CYP2C19 Remaining % (CYP2C19; Concentration 50 uM): 67.6%
- IC50 (CYP2C19; read-out: half-inhibitory concentration (IC50) of CYP2C19): > 50 µM
